Data: ChEMBL document CHEMBL1144715, “Synthesis, checkpoint kinase 1 inhibitory properties and in vitro antiproliferative activities of new pyrrolocarbazoles” (Bioorg Med Chem, 2008)

Tests used:
[1] = molecular target: T1, Serine/threonine-protein kinase Chk1 (Homo sapiens, UniProt O14757); test: Inhibition of human Chk1
T1 sequence (O14757 whole entry): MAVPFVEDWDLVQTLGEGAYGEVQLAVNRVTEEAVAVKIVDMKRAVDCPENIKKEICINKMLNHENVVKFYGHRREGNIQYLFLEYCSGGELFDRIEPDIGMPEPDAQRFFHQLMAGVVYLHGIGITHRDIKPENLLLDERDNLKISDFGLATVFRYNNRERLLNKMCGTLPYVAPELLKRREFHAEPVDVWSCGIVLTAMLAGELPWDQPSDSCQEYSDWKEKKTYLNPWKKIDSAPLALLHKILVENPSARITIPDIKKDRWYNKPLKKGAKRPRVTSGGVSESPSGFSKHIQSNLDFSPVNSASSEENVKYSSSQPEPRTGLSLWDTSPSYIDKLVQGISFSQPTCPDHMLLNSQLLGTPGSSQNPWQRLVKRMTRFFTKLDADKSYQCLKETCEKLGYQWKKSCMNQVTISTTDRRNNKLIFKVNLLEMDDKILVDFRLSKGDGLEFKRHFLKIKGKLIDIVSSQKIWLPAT

L1210 = test: Cytotoxicity against mouse L1210 cells after 4 hrs by microculture tetrazolium assay; format: functional, cell-based; settings: L1210, 4 h
HCT-116 = test: Cytotoxicity against human HCT116 cells after 4 hrs by microculture tetrazolium assay; format: functional, cell-based; settings: HCT-116, 4 h
HT-29 = test: Cytotoxicity against human HT29 cells after 4 hrs by microculture tetrazolium assay; format: functional, cell-based; settings: HT-29, 4 h
[2] = molecular target: T2, Serine/threonine-protein kinase Chk1 (Homo sapiens) (UniProt O14757); test: Inhibition of human Chk1 at 10 uM
T2 sequence (whole entry): T1 sequence (O14757 whole entry)

[3] = molecular target: Proto-oncogene tyrosine-protein kinase Src (Homo sapiens) (UniProt P12931); test: Inhibition of Src at 10 uM after 20 mins
Proto-oncogene tyrosine-protein kinase Src (Homo sapiens), sequence (P12931 2-536 limits assumed): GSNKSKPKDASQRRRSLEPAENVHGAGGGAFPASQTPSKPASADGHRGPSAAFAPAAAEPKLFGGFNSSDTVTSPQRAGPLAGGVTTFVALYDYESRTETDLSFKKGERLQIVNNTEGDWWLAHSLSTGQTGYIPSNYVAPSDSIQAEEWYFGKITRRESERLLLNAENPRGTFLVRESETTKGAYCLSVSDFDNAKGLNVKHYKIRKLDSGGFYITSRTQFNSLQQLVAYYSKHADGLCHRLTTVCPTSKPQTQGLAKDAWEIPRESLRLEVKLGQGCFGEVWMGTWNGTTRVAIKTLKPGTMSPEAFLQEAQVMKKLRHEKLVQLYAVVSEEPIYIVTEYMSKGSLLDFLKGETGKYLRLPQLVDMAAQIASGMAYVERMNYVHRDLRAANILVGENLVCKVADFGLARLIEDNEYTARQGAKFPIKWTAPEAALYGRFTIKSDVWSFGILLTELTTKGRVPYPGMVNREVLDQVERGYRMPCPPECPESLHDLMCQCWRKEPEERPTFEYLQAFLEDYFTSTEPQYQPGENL

SMILES	IC50 [1] [µM]	inhibition [2] [%]	inhibition [3] [%]	IC50 (L1210) [µM]	IC50 (HCT-116) [µM]	IC50 (HT-29) [µM]
O=c1ccc(=O)c2c1c1[nH]c3ccccc3c1c1c(=O)[nH]c(=O)c21				6.8	5.3	17.4
O=C1NC(=O)c2c1c1c3ccccc3[nH]c1n1cncc21 [ISOGRANULATIMIDE]				10	13	13.7
O=c1[nH]c(=O)c2c1c1[nH]c3ccccc3c1c1c(=O)[nH]c(=O)c21 [BIS-IMIDE A]				32.7		9.7
O=C1NC(=O)c2c1c1c(O)ccc(O)c1c1[nH]c3ccccc3c21				1.1	3.1	5.6
O=C1NC(=O)c2c1c1[nH]cnc1c1[nH]c3ccccc3c21 [GRANULATIMIDE]				2.8	6.1	5.7
CC1(C)C(=O)c2c3c(c4c([nH]c5ccccc54)c2C1=O)C(=O)NC3		20	19	2.2	1.7	2.5

Second part, led by results:

IC50 [1] [µM]	inhibition [2] [%]	inhibition [3] [%]	SMILES	IC50 (L1210) [µM]	IC50 (HCT-116) [µM]	IC50 (HT-29) [µM]
0.051			O=C1NC(=O)c2c1c1c(c3c2[nH]c2ccccc23)C(=O)NC1			
14.5	63		CC1(C)C(=O)c2c3c(c4c([nH]c5ccccc54)c2C1=O)C(=O)NC3=O	33	32.7	38.5
0.024	83		O=C1NCc2c1c1c(c3c2[nH]c2ccccc23)C(=O)NC1=O	> 50	8.54	0.58
1.92	73	9	O=C1NC(=O)c2c1c1c(O)ccc3c1c1c2c2ccccc2n1[C@]1(O3)O[C@H](CO)[C@@H](O)[C@H](O)[C@H]1O	21.2	46.4	57.8
